Measurements: ChEMBL document CHEMBL1135213, “New indene-derivatives with anti-proliferative properties” (Bioorg Med Chem Lett, 2002)
pIC50: −log10 of the molar value. The source made the active and inactive calls. The rule behind the calls is not given here.

Legend:
[1] = biological target: T1, Cyclooxygenase (Homo sapiens) (UniProt P35354+P23219); settings: Ovis aries
MDCK [2] = test: Anti-proliferative activity was evaluated by its ability to inhibit proliferation of MDCK cells; format: functional, cell-based, Canis lupus familiaris
SW480 [3] = test: Anti-proliferative activity was evaluated by its ability to inhibit proliferation of SW480 cells; na means Not active; format: functional, cell-based, Homo sapiens
REF [4] = test: Anti-proliferative activity was evaluated by its ability to inhibit proliferation of rat embryonic fibroblasts (REF); format: functional, cell-based
[5] = Inhibition of p21ras protein and Raf kinase in vitro using recombinant proteins; design: unit not given here
NIH3T3 [6] = test: Anti-proliferative activity was evaluated by its ability to inhibit proliferation of murine NIH3T3 fibroblasts; format: functional, cell-based, Mus musculus
MDCK [7] = test: Anti-proliferative activity was evaluated by its ability to inhibit proliferation of MDCK-f3 (Madin-Darby canine kidney f3) cell line; format: functional, cell-based, Canis lupus familiaris
SW480 [8] = test: Anti-proliferative activity was evaluated by its ability to inhibit proliferation of SW480 cells; format: functional, cell-based, Homo sapiens
[9] = biological target: T1, Cyclooxygenase (Homo sapiens); test: Half-maximal inhibition of the COX activity was measured by the direct analysis of the consumed O2 using isolated sheep seminal vesicles; na means Not active; format: functional; settings: Ovis aries; target entry is the homologue from another species
[10] = Inhibition of p21ras protein and Raf kinase in vitro using recombinant proteins (inactive)
NIH3T3 [11] = test: Anti-proliferative activity was evaluated by its ability to inhibit proliferation of murine NIH3T3 fibroblasts; na means Not active; format: functional, cell-based, Mus musculus
MDCK [12] = test: Anti-proliferative activity was evaluated by its ability to inhibit proliferation of MDCK cells; na means Not active; format: functional, cell-based, Canis lupus familiaris
REF [13] = test: Anti-proliferative activity was evaluated by its ability to inhibit proliferation of rat embryonic fibroblasts (REF); na means Not active; format: functional, cell-based
MDCK [14] = test: Anti-proliferative activity was evaluated by its ability to inhibit proliferation of MDCK-f3 (Madin-Darby canine kidney f3) cell line; na means Not active; format: functional, cell-based, Canis lupus familiaris

Inhibitory activity [1]	Inhibitory activity [5]	pIC50 (SW480 [8]; sw480)	pIC50 (SW480 [8]; Homo sapiens, SW480)	Compound	pIC50 (MDCK [2]; Canis lupus familiaris, MDCK)	pIC50 (REF [4]; Rattus norvegicus, REF)	pIC50 (NIH3T3 [6]; Mus musculus, NIH3T3)	pIC50 (MDCK [7]; Canis lupus familiaris, MDCK)	pIC50 (MDCK [2]; mdck)	also measured
1.6	10	–	–	COc1ccc(C=C2C(C)=C(CC(=O)O)c3cc(F)ccc32)cc1	3.34	3.30	3.32	3.51	–	IC50 (SW480 [3]): Not Active
–	–	4.10	–	CC1=C(CC(=O)O)c2cc(F)ccc2C1=Cc1ccc(C)o1 [listing 1 of 2 here]	–	–	–	–	4.22	pIC50 (REF [4]; ref): 5.00; pIC50 (NIH3T3 [6]; nih3t3): 4.22; pIC50 (MDCK [7]; mdck): 4.22
2.6	210	–	3.70	CSc1ccc(/C=C2/C(C)=C(CC(=O)O)c3cc(F)ccc32)cc1 [SULINDAC SULFIDE]	3.74	3.70	3.46	3.70	–	–
0.24	30	–	3.40	CC1=C(CC(=O)O)c2cc(F)ccc2C1=Cc1ccoc1	3.52	4.52	3.77	4.30	–	–
570	45	–	–	CC1=C(CC(=O)O)c2cc(F)ccc2C1=Cc1ccc(CO)o1 [listing 1 of 3 here]	–	–	–	–	–	–
–	–	3.51	–	CC1=C(CC(=O)O)c2cc(F)ccc2C1=Cc1ccc(CO)o1 [listing 2 of 3 here]	–	4.05	3.35	3.89	3.60	–
–	–	–	3.10	CC1=C(CC(=O)O)c2cc(F)ccc2C1=Cc1ccc([S+](C)[O-])cc1 (stereo unspecified) [SULINDAC]	3.52	4.00	3.70	3.49	–	Inhibitory activity [9]: inactive; Inhibitory activity [10]: inactive
0.03	–	–	3.49	CC1=C(CC(=O)O)c2cc(F)ccc2C1=Cc1cccs1	3.33	4.00	3.40	4.10	–	Inhibitory activity [10]: inactive
–	–	4.15	–	CC1=C(CC(=O)O)c2cc(F)ccc2C1=Cc1ccc(CO)o1 [listing 3 of 3 here]	–	–	–	–	4.30	pIC50 (REF [4]; ref): 4.10; pIC50 (NIH3T3 [6]; nih3t3): 3.31; pIC50 (MDCK [7]; mdck): 3.92
–	–	–	3.44	COc1cccc(C=C2C(C)=C(CC(=O)O)c3cc(F)ccc32)c1	3.56	3.70	3.28	3.52	–	–
–	–	–	–	CC1=C(CC(=O)O)c2cc(F)ccc2C1=Cc1ccc(S(=O)(=O)O)o1	–	–	–	–	–	IC50 (NIH3T3 [11]): Not Active; IC50 (MDCK [12]): Not Active; IC50 (REF [13]): Not Active; IC50 (SW480 [3]): Not Active; IC50 (MDCK [14]): Not Active
–	–	–	3.07	COc1ccccc1C=C1C(C)=C(CC(=O)O)c2cc(F)ccc21	–	3.70	3.30	3.44	–	–
–	–	3.42	–	CC1=C(CC(=O)O)c2cc(F)ccc2C1=Cc1ccc(C)o1 [listing 2 of 2 here]	–	4.70	4.00	–	3.60	pIC50 (MDCK [7]; mdck): 3.51
